Data reported in patent US6835382B2, “Ii peptide therapeutics to enhance antigen presentation” (University of Massachusetts, priority 1996, dated 2004).
Non-standard residues stand in square brackets, D forms with d. hArg = N=C(N)NCCCC[C@H](N)C(=O)O; Cit = NC(=O)NCCC[C@H](N)C(=O)O; Orn = NCCC[C@H](N)C(=O)O

Test system: murine E^k MHC class II allele
Test: antigenic peptide prepulse assay, E^k allele (fixed APC prepulsed with PGCC81-104)
Format: cell-based
Details: for Activity in antigenic peptide prepulse assay, E^k (baseline = 1.0): prepulse 1.25 μM antigenic peptide; for Activity in antigenic peptide prepulse assay, E^k (baseline without AE peptide = 1.00): Table 19, prepulse 20 μM PGCC81-104
Procedure: In a second type of assay, the “peptide prepulse assay”, the antigenic peptide is incubated with paraformaldehyde-fixed APC for 6 h. The APC are washed and incubated for 24 h with the AE101 series homolog and the T cell hybridoma specific for the antigenic peptide. After that incubation, an aliquot of the culture supernatant is transferred to a second culture to measure the relative degree of T hybridoma stimulation, as reflected in the effect of released interleukins on the growth of an interleukin-dependent, indicator cell line, as described above.
The two above described assays measure different aspects of the molecular mechanism of the AE101 series of peptides. In the “simultaneous assay”, AE101 series peptides are thought to induce the release of endogenously bound peptides and to permit the binding of the second, specific antigenic peptide which is relatively abundant in the culture fluid. The AE101 series peptides enhance antigenic peptide-specific T cell responses in simultaneous assays. In the “peptide prepulse” assay, the specific antigenic peptide becomes bound to MHC class II molecules on the surface of the fixed APC during the 6 h prepulse incubation. The effect of the AE101 series homologs is then thought to release that antigenic peptide, resulting in an apparent suppression of the immune response.
The AE101 series peptides are thought to contact the MHC class II molecules at a discrete site outside the antigenic peptide-binding groove. AE101 peptide binding to this “Ii-KEY” site is thought to induce a conformational change in the MHC class II molecules accelerating the dissociation of previously bound antigenic peptide. […] The AE101 series peptides thus inhibit antigenic peptide-specific T cell responses in the “peptide prepulse” assays.
Antigenic peptide-specific T cell activation was measured by the following procedure. Mitomycin C-treated A20 cells (A^dE^d) or CH27 cells APC (A^kE^k) were generated by incubating 5×10^6 cells/mL for 20 min at 37° C. with 0.025 mg/mL of mitomycin C (Sigma) in Dulbecco's Modified Eaglel's Medium (DMEM)/10 mM N-2(hydroxyethylpiperazine-N″[2-ethanesulfonic acid] (HEPES), followed by two washes with four volumes of DMEM-5% fetal calf serum (FCS), 10 mM HEPES. Fixed APC were generated by treating 1×10^6 cells/mL for 5 min with 0.5% paraformaldehyde in PBS (pH 7.2), followed by two washes with four volumes of DMEM-10% FCS, 10 mM HEPES. T cell hybridomas were irradiated 2200 rads before each assay.
The “peptide prepulse assay” was carried out under essentially the same conditions as described for the “simultaneous assay” with the following modifications. Fixed APC were first incubated for 6 h at 1×10^6 cells/mL in complete DMEM-5% FCS in 24-well microculture plates (1 mL/well) with antigenic peptide, followed by four washes with 10 volumes of DMEM-5% FCS. The cells were then exposed to varying concentrations of AE101 series peptide (64 μM, 16 μM, 4 μM, and 1 μM) for 24 h in the presence of the T cell hybridoma specific to the antigenic peptide. Interleukin release from these cultures was measured by proliferation of HT-2 cells to interleukins in supernatants transferred from the primary culture. Generally, a single dose of 64 μM of each AE101 series peptide was used. The baseline T cell response was measured by culturing T hybridoma cells with the antigenic peptide-prepulsed APC in the absence of AE101 series peptides.
Table 19: Activities of C-terminal truncation analogs of AE101 in an antigenic peptide prepulse assay. […] Paraformaldehyde-treated APC (fixed APC) expressing MHC class II molecules were incubated with antigenic peptide for 6 h (HEL106-116 for E^d and PGCC81-104 for E^k). After this incubation, the prepulsed APC were washed and cultured with T hybridoma cells and AE101 series peptides. The antigenic peptide concentration during the prepulse was 12 μM for Ed and 20 μM for E^k. The AE101 series peptide concentrations were 64 μM for E^d and 16 μM for E^k. […]

[1] = Table 22, AE peptide 16 μM, prepulse 20 μM antigenic peptide, supernatant 1:2
[2] = Table 24, AE peptide 64 μM, prepulse 0.625 μM antigenic peptide, supernatant 1:8
[3] = Table 25, AE peptide 64 μM, prepulse 2.5 μM antigenic peptide, supernatant 1:10
[4] = Table 26, AE peptide 64 μM, supernatant 1:8
[5] = AE peptide 16 μM, supernatant 1:2
[6] = Table 20, AE peptide 16 μM, prepulse 20 μM antigenic peptide, supernatant 1:2
[7] = Table 21, AE peptide 16 μM, prepulse 20 μM antigenic peptide, supernatant 1:2

Substance: Ac-LRMKLP k-NH2 [AE166]
- Activity in antigenic peptide prepulse assay, E^k (baseline = 1.00) [1]: 0.15
- Activity in antigenic peptide prepulse assay, E^k (baseline = 1.00) [2]: 0.83

Substance: Ac-LRMKLPK-NH2 [AE114]
- Activity in antigenic peptide prepulse assay, E^k (baseline = 1.00) [1]: 0.15
- Activity in antigenic peptide prepulse assay, E^k (baseline = 1) (Table 23, as printed: antigenic peptide prepulse 64 μM, AE peptide 1:8 μM, supernatant 1:2): 0.78
- Activity in antigenic peptide prepulse assay, E^k (baseline = 1.00) [2]: 0.78
- Activity in antigenic peptide prepulse assay, E^k (baseline = 1.00) [3]: 0.79
- Activity in antigenic peptide prepulse assay, E^k (baseline = 1.0) [4]: 0.98
- T cell response relative to baseline without AE peptide (None = 1.0), E^k (Table 27, antigenic peptide prepulse 1.25 μM, AE101 series peptide 64 μM, HT-2 supernatant dilution 1:8): 0.69
- Activity in antigenic peptide prepulse assay, E^k (baseline = 1.0) (Table 28, AE peptide 64 μM, supernatant 1:4): 0.78

Substance: Ac-LRMKLPKPPK-NH2 [AE168]
- Activity in antigenic peptide prepulse assay, E^k (baseline without AE peptide = 1.00) [5]: 0.01

Substance: Ac-LRMKLPKPPP-NH2 [AE167]
- Activity in antigenic peptide prepulse assay, E^k (baseline without AE peptide = 1.00) [5]: 0.01

Substance: Ac-LRMKLP[Cit]-NH2 [AE241]
- Activity in antigenic peptide prepulse assay, E^k (baseline = 1.0) [4]: 0.99

Substance: Ac-LRNKNPF-NH2 [AE348]
- Activity in antigenic peptide prepulse assay, E^k (baseline = 1.00) [3]: 0.72

Substance: Ac-LRNKNPK-NH2 [AE349]
- Activity in antigenic peptide prepulse assay, E^k (baseline = 1.00) [3]: 0.81

Substance: Ac-LR[Orn]KLPK-NH2 [AE195]
- Activity in antigenic peptide prepulse assay, E^k (baseline = 1.00) [3]: 0.74

Substance: Ac-L[Cit]MKNPK-NH2 [AE342]
- Activity in antigenic peptide prepulse assay, E^k (baseline = 1.00) [3]: 1.10

Substance: Ac-L[Cit]NKLPK-NH2 [AE343]
- Activity in antigenic peptide prepulse assay, E^k (baseline = 1.00) [3]: 0.90

Substance: Ac-Y D MKLPKSAK-NH2 [AE135]
- Activity in antigenic peptide prepulse assay, E^k (baseline = 1.00) [6]: 0.95

Substance: Ac-Y E MKLPKSAK-NH2 [AE136]
- Activity in antigenic peptide prepulse assay, E^k (baseline = 1.00) [6]: 0.97

Substance: Ac-Y F MKLPKSAK-NH2 [AE139]
- Activity in antigenic peptide prepulse assay, E^k (baseline = 1.00) [6]: 0.38

Substance: Ac-Y H MKLPKSAK-NH2 [AE133]
- Activity in antigenic peptide prepulse assay, E^k (baseline = 1.00) [6]: 0.86

Substance: Ac-Y K MKLPKSAK-NH2 [AE134]
- Activity in antigenic peptide prepulse assay, E^k (baseline = 1.00) [6]: 0.43
- Activity in antigenic peptide prepulse assay, E^k (baseline = 1.0) [4]: 0.98

Substance: Ac-Y L MKLPKSAK-NH2 [AE142]
- Activity in antigenic peptide prepulse assay, E^k (baseline = 1.00) [6]: 0.46

Substance: Ac-Y M MKLPKSAK-NH2 [AE141]
- Activity in antigenic peptide prepulse assay, E^k (baseline = 1.00) [6]: 0.52

Substance: Ac-Y N MKLPKSAK-NH2 [AE137]
- Activity in antigenic peptide prepulse assay, E^k (baseline = 1.00) [6]: 0.72

Substance: Ac-Y Q MKLPKSAK-NH2 [AE138]
- Activity in antigenic peptide prepulse assay, E^k (baseline = 1.00) [6]: 0.85

Substance: Ac-Y Y MKLPKSAK-NH2 [AE140]
- Activity in antigenic peptide prepulse assay, E^k (baseline = 1.00) [6]: 0.79

Substance: Ac-YAMKLPKSAK-NH2 [AE121]
- Activity in antigenic peptide prepulse assay, E^k (baseline = 1.00) [6]: 0.59

Substance: Ac-YRM-NH2 [AE118]
- Activity in antigenic peptide prepulse assay, E^k (baseline without AE peptide = 1.00) [5]: 0.35

Substance: Ac-YRMK-NH2 [AE117]
- Activity in antigenic peptide prepulse assay, E^k (baseline without AE peptide = 1.00) [5]: 0.09

Substance: Ac-YRMKL hydrP KSAK-NH2 (Ac-YRMKL[hydrP]KSAK-NH2) [AE143]
- Activity in antigenic peptide prepulse assay, E^k (baseline = 1.00) [7]: 0.10

Substance: Ac-YRMKL-NH2 [AE116]
- Activity in antigenic peptide prepulse assay, E^k (baseline without AE peptide = 1.00) [5]: 0.10

Substance: Ac-YRMKLP-NH2 [AE115]
- Activity in antigenic peptide prepulse assay, E^k (baseline without AE peptide = 1.00) [5]: 0.07

Substance: Ac-YRMKLPK-NH2 [AE113]
- Activity in antigenic peptide prepulse assay, E^k (baseline without AE peptide = 1.00) [5]: 0.04

Substance: Ac-YRMKLPKSAK-NH2 [AE109]
- Activity in antigenic peptide prepulse assay, E^k (baseline without AE peptide = 1.00) [5]: 0.07
- Activity in antigenic peptide prepulse assay, E^k (baseline = 1.00) [6]: 0.28
- Activity in antigenic peptide prepulse assay, E^k (baseline = 1.00) [7]: 0.07

Substance: Ac-Y[Cit]MKLPKSAK-NH2 [AE131]
- Activity in antigenic peptide prepulse assay, E^k (baseline = 1.00) [6]: 0.71
- Activity in antigenic peptide prepulse assay, E^k (baseline = 1.00) [3]: 0.98

Substance: Ac-Y[Orn]MKLPKSAK-NH2 [AE130]
- Activity in antigenic peptide prepulse assay, E^k (baseline = 1.00) [6]: 0.66

Substance: Ac-Y[hArg]MKLPKSAK-NH2 [AE132]
- Activity in antigenic peptide prepulse assay, E^k (baseline = 1.00) [6]: 0.1
- Activity in antigenic peptide prepulse assay, E^k (baseline = 1.0) [4]: 0.89

Substance: Ac-l RMKLPK-NH2 [AE160]
- Activity in antigenic peptide prepulse assay, E^k (baseline = 1.00) [1]: 0.47

Substance: YRMKLPKSAKPVSQMR [AE101]
- Activity in antigenic peptide prepulse assay, E^k (baseline = 1.00) [6]: 0.89
